Values of other authors, collected in publication PMC5857253 (Bioorganic chemistry, 2018).

Target: β-galactosidase (A. oryzae) (Aspergillus oryzae, UniProt Q2UCU3)
Conditions: methods described by Bartlett et al.

Sequence of β-galactosidase (A. oryzae) (Q2UCU3 19-1005): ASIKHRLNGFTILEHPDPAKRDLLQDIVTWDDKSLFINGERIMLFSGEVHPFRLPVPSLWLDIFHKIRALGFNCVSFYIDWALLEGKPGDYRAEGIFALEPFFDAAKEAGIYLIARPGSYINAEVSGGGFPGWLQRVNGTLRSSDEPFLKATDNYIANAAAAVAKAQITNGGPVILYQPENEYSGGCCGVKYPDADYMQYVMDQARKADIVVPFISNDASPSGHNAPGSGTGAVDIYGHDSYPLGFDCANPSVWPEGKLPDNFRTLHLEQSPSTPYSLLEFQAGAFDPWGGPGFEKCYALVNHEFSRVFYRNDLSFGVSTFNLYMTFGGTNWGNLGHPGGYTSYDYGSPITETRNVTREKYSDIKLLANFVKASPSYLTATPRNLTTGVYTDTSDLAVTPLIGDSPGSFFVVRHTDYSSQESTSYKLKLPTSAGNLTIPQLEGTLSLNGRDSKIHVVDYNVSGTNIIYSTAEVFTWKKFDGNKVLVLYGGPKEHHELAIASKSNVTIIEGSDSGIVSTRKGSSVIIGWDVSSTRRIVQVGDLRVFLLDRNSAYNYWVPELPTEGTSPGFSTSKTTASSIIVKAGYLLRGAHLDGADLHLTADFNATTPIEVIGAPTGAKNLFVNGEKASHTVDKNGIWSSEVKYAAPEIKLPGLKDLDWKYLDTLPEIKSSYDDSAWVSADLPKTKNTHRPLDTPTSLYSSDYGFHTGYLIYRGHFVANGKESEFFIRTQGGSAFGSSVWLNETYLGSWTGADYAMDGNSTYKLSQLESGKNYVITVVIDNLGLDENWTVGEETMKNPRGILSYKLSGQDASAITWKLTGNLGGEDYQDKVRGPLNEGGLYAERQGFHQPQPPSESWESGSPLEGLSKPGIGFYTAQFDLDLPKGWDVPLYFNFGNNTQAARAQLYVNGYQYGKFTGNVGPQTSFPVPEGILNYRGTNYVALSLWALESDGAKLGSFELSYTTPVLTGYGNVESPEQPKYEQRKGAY

Compound: Cc1ccc(C/N=C2\N[C@H](CO)[C@H](O)[C@H](O)[C@H]2O)cc1 [1a, p-methylbenzyl galactonoamidine]
- classification as putative transition state analog (TSA): characterized as a putative transition state analog
